Results: paper PMC9704104, “Towards safer anti-inflammatory therapy: synthesis of new thymol–pyrazole hybrids as dual COX-2/5-LOX inhibitors” (Journal of Enzyme Inhibition and Medicinal Chemistry, 2022)
Values joined by “and” are separate entries in the source; they are usually repeats but may differ in a detail not shown here. Equal entries are not always repeated. “Also recorded” adds a separate entry of the source. Where two headings read alike, the source gives them in different places.

Tests used:
COX-1 = molecular target: T1, COX-1 (Ovis aries, UniProt P05979); assay: In vitro COX-1 inhibitory assay (Cayman colorimetric COX (ovine) inhibitor screening assay kit); type: biochemical; details: mean of three replicates ± SD
T1 construct: purchased Cayman chemicals 560131
T1 sequence (P05979 25-600): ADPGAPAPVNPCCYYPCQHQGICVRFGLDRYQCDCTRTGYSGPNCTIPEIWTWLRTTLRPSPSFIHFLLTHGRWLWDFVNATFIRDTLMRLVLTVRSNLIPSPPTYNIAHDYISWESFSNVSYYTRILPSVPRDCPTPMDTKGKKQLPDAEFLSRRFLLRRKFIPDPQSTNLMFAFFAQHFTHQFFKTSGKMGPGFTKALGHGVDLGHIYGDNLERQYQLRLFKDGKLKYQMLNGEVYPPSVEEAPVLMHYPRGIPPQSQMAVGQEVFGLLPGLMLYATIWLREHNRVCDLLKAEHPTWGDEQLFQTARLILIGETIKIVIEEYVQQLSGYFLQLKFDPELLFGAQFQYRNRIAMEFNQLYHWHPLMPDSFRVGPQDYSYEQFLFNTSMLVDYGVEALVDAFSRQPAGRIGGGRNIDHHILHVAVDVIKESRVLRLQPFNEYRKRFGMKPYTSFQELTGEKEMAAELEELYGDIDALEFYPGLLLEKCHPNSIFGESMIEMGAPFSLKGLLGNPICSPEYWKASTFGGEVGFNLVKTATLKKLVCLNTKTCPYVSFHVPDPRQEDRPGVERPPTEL
Protocol: (Page: S20, Supplementary file).
Anti-inflammatory activity
In vitro COX-1 and COX-2 inhibitory assay […]
supplied by Cayman chemicals, Ann Arbor, MI, USA according to reported method 1. The colorimetric COX inhibitor screening assay utilizes the peroxidase component of cyclooxygenase. The peroxidase activity was assayed calorimetrically by monitoring the appearance of oxidized N,N,N',N'-tetramethyl-1,4-phenylenediamine (TMPD) at 590nm. The appearance of reagent was carried out following the instructions […]
The half- maximal inhibitor concentrations (IC50µM) were determined and the selectivity index (SI) values were calculated as IC50 (COX-1)/IC50 (COX-2).
1) Background wells- 160 µL of assay buffer and 10 µL of heme were added to background wells.
2) The 100% Initial activity wells- 150 µL of assay buffer, 10 µL of heme and 10 µL of enzyme (COX-1 or COX-2) were added.
3) Inhibitor well- 150 µL of assay buffer, 10 µL of heme and 10 µL of enzyme were added.
4) 10 µL of inhibitor (3 concentrations) in DMSO was added to the inhibitor wells to yield a final […]
5) 10 µL of solvent (DMSO) was added to the 100% Initial activity wells and background wells.
7) 20 µL of colorimetric substrate solution (TMPD) was added to all wells.
8) 20 µL of arachidonic acid was added to all wells to yield a final concentration of 100 µM.
10) The absorbance was measured at 590 nm using a plate reader.
The calculations were carried out in the following manner:
1) The average absorbance of all samples was determined.
2) The absorbance of background wells was subtracted from absorbance of the 100% Initial activity […]
3) Percent inhibition = (100% Initial activity – Inhibitor wells/ 100% Initial activity)∗ 100 […]
Place the 96-well plate on a shaker for at least five minutes. […]

5-LOX = assay: In vitro 5-LOX inhibitory assay (Abnova 5-LOX inhibitor screening assay kit); type: biochemical
Excerpt: The newly synthesised compounds were screened for their ability to inhibit 5-LOX enzymes. […] (Page: S21, Supplementary file). […]
In vitro LOX inhibitory assay
Inhibitor Screening Assay Kit detects and measures the hydroperoxides produced in the lipoxygenation reaction using a purified LOX. The detection reaction is equally sensitive to hydroperoxides at various positions within the fatty acid and will work with fatty acids of any carbon length. It is thus a general detection method for 5-LOX and can be used to screen libraries of compounds for those which inhibit 5 -LOX enzymes.
1) Blank Wells- add 100 µL of assay buffer to at least two wells.
2) Positive Control Wells- Lipoxygenase (15-LO standard) add 90 µL 15-LO and 10 µL of assay buffer […]
3) 100% Initial Activity Wells- add 90 µL 15-LO and 10 µL of solvent (DMSO) (the same solvent to dissolve the inhibitor) to two wells. The 100% initial activity wells should result in approximately 10 […]
4) Inhibitor Wells- add 90 µL of sample and I10 µL of inhibitor to two wells.
5) Initiate the reaction by adding 10 µL of substrate (either arachidonic acid or linoleic acid) to all the wells. Place the 96-well plate on a shaker for at least five minutes.
6) Add 100 µL of chromogen to each well to stop enzyme catalysis and develop the reaction. Cover with a plate cover and place the 96-well plate on a shaker for at least five minutes.
7) Remove the cover and read the absorbance at 490-500 nm using a plate reader.
Inhibitors were dissolved in DMSO. The inhibitors were added to the assay in a final volume of 10 µL before initiating with substrate. Three concentrations were prepared (25, 50 and 100 µM) to determine the concentration produced 50% enzyme inhibition.
2) The absorbance of blank wells was subtracted from absorbance of the 100% Initial activity and the […]

[1] = test system: formalin-induced rat paw oedema; assay: Formalin-induced paw oedema test (acute inflammation model); type: in vivo; details: for % inhibition of paw oedema compared with reference drugs (in words) / inhibition in vivo at 5 mg/kg: 4 h; for % inhibition of paw oedema compared with reference drugs (in words) / inhibition in vivo at 5 mg/kg / Volume of oedema (ml) 0 / Volume of oedema (ml) 4h: 5 mg/kg orally; for % inhibition of paw oedema compared with reference drugs (in words): comparison with celecoxib or diclofenac sodium; for inhibition in vivo at 5 mg/kg: Rattus norvegicus, po; for % Relative potency (4h) celecoxib / % Relative potency (4h) celecoxib, Mean ± SD: relative to % inhibition of celecoxib at 4 h; for % Relative potency (4h) diclofenac, Mean ± SD / % Relative potency (4h) diclofenac: relative to % inhibition of diclofenac at 4 h; for Volume of oedema (ml) 0 / Volume of oedema (ml) 4h: 5 mg/kg; for Volume of oedema (ml) 4h: 4 h after formalin
Protocol: Animals Adult female albino rats weighing 150-250 g were used (Experimental Animal Centre in Alexandria University). All animals accessed to food and water ad libitum and were housed in 12 h dark/light cycle in a controlled condition at 23-250C. They were allowed to acclimatize for 1 week prior to experimentation. Procedures involving animals and their care were conducted in conformity with the Guide for the Care and Use of Laboratory Animals published by US National Institute of Health4 (NIH publication No. 83-23, revised) and following the ethical guidelines of Alexandria University on laboratory animals. In all tests, adequate considerations were adopted to reduce pain or discomfort of animals (Approved by AlexU-IACUC) 3. […]
Formalin-induced paw edema test (acute inflammation model):
A solution of freshly prepared formalin 5% was used as a phlogistic agent. A mark was made on the lateral malleolus of the rats’ paws delineating the injection sites. The initial volume of paw was measured by means of digital calibrated Vernier caliper .
After 45 minutes, 40 μl formalin were injected subcutaneously into the sub plantar tissue of the right hind paw of all groups under light ether anesthesia . An equal volume of saline was injected into the left hind paw and served as internal control for the degree of inflammation in the right hind paw. 5, 6 The volume of paw was measured in different treatment groups, 4 h following the formalin injection and the amount of increase in paw volume (edema volume) was calculated by subtracting the volumes before and 4 h after the injection of formalin. Edema was expressed as an increase in the volume of paw, and the percentage of edema inhibition (or percent protection against inflammation) for each rat and each group was calculated according to the following equation: […]
Where Vt is the mean volume of edema at specific time interval (4 h) and Vo is the mean volume of edema […]
Relative potency of the tested compounds was expressed as % inhibition of edema for the tested compounds

gastric mucosa = assay: In vivo gastric ulcerogenic activity (gross examination of gastric mucosa); details: fasted rats, 60 mg/kg orally, six hours after treatment, 60 mg/kg
Protocol: Compounds were evaluated for acute gastric ulcerogenic effect in adult female Wistar rats. Gross examination was performed for any evidence of hyperaemia, haemorrhage, definite haemorrhagic erosion, or ulcer according to reported procedures[49]^,[51]
Compounds were evaluated for acute gastric ulcerogenic effect in adult female Wistar rats. Rats (150–250 g)
were divided into groups of six rats each and test compounds, references or DMSO as control were
administered orally at a dose of 60 mg/kg body weight (three times the previously used dose). Six hours after
the treatment they were sacrificed under deep ether anesthesia and their stomachs were removed and opened
through greater curvature, washed under running water and fixed in saline solution. Gross examination was
performed for any evidence of hyperemia, hemorrhage, definite hemorrhagic erosion or ulcer 6, 7 (Approved
The degree of ulcerogenicity was determined by viewing the gastric epithelial ulceration using a 5x
magnifying lens and rated by ulcer score.
Ulcer score was used to grade the incidence and severity of the lesions such as:
1) Shedding of epithelium—10
2) Petechial and frank hemorrhages—20
4) More than two ulcers—40

[2] = individual rats 1-3, read-out: % Inhibition of oedema volume

| IC50 (COX-1) [µM] | IC50 (5-LOX) [µM] | melting point [°C] | SMILES | % inhibition of paw oedema compared with reference drugs (in words) [1] | inhibition in vivo at 5 mg/kg [1, 2] [%] | % Relative potency (4h) celecoxib ([1]; individual rats 1-3) | % Relative potency (4h) diclofenac, Mean ± SD ([1]; group mean ± SD) [%] | % Relative potency (4h) diclofenac ([1]; individual rats 1-3) | Volume of oedema (ml) 0 ([1]; individual rats 1-3) [mL] | Gross appearance of gastric mucosa (ulcerogenic potential) (gastric mucosa) | % Relative potency (4h) celecoxib, Mean ± SD ([1]; group mean ± SD) [%] | inhibition in vivo at 5 mg/kg ([1]; group mean ± SD, read-out: % Inhibition of oedema volume, Mean ± SD) [%] | Volume of oedema (ml) 4h ([1]; individual rats 1-3) [mL] |
| --- | --- | --- | --- | --- | --- | --- | --- | --- | --- | --- | --- | --- | --- |
| 12.6 ± 0.46 | 2.78 ± 0.016 | 218 to 220 | COc1ccc(-c2cc(C(=O)NN=Cc3c(C)ccc(C(C)C)c3O)nn2-c2ccc(Cl)cc2)cc1 [Compound 8i, 5-(4-Methoxyphenyl)-1-(4-chlorophenyl)-N'-(2-hydroxy-3-isopropyl-6-methylbenzylidene)-1H-pyrazole-3-carbohydrazide] | double % inhibition exhibited by Celecoxib | 67.6 | 192.30% and 183.30% and 210.70% | 135.4 ± 6.60 | 142.90% and 130.50% and 132.80% | 5.30 | variable degrees of hyperaemia; also recorded: Hyperemia without gross ulceration | – | – | – |
| 12.6 ± 1.36 | 1.97 ± 0.026 | – | Cc1ccc(C(C)C)c(O)c1C=NNC(=O)c1cc(-c2ccc(Br)cc2)n(-c2ccc(Cl)cc2)n1 [Compound 8h, 5-(4-Bromophenyl)-1-(4-chlorophenyl)-N'-(2-hydroxy-3-isopropyl-6-methylbenzylidene)-1H-pyrazole-3-carbohydrazide] | slightly less % inhibition than that of Diclofenac sodium | 53.6 | 152.60% and 116.70% and 153.30% | 97.67 ± 15.13 | 113.30% and 83.10% and 96.60% | 5.02 | variable degrees of hyperaemia; also recorded: Hyperemia without gross ulceration | 140.9 ± 20.93 | – | – |
| 10.3 ± 0.1 | 3.05 ± 0.067 | – | Cc1ccc(C(C)C)c(O)c1C=NNC(=O)c1cc(-c2ccccc2)n[nH]1 [Compound 4a, N'-(2-Hydroxy-3-isopropyl-6-methylbenzylidene)-3-phenyl-1H-pyrazole-5-carbohydrazide] | double % inhibition exhibited by Celecoxib | 84.2 | 239.70% and 192.90% and 244.0% | 156.4 ± 20.52 | 178.10% and 137.30% and 153.80% | – | No gross ulceration | – | 81.9 | – |
| 10.22 ± 0.046 | 2.91 ± 0.068 | 246 to 248 | COc1ccc(-c2cc(C(=O)NN=Cc3c(C)ccc(C(C)C)c3O)[nH]n2)cc1 [Compound 4c, N'-(2-Hydroxy-3-isopropyl-6-methylbenzylidene)-3–(4-methoxyphenyl)-1H-pyrazole-5-carbohydrazide] | – | 66.2 | 188.50% and 151.20% and 157.30% | 115.6 ± 21.54 | 140.0% and 107.60% and 99.20% | – | variable degrees of hyperaemia; also recorded: Hyperemia without gross ulceration | 165.7 ± 20.01 | – | 6.20 |
| 12.87 ± 0.097 | 1.91 ± 0.053 | 245 to 247 | COc1ccc(-c2cc(C(=O)NN=Cc3c(C)ccc(C(C)C)c3O)nn2-c2ccc(S(N)(=O)=O)cc2)cc1 [Compound 8c, 4-(3-(2-(2-Hydroxy-3-isopropyl-6-methylbenzylidene)hydrazine-1-carbonyl)-5-(4-methoxyphenyl)-1H-pyrazol-1-yl)benzenesulfonamide] | – | 60.4 | 171.80% and 159.50% and 178.70% | 117.9 ± 8.39 | 127.60% and 113.60% and 112.60% | – | – | 170.0 ± 9.73 | – | 5.80 |
| 12.1 ± 0.16 | 1.6 ± 0.042 | – | Cc1ccc(C(C)C)c(O)c1C=NNC(=O)c1cc(-c2ccccc2)n(-c2ccc(Cl)cc2)n1 [Compound 8g, 1-(4-Chlorophenyl)-N'-(2-hydroxy-3-isopropyl-6-methylbenzylidene)-5-phenyl-1H-pyrazole-3-carbohydrazide] | – | 52.7 | 150.0% and 145.20% and 150.70% | 103.3 ± 8.20 | 111.40% and 103.40% and 95.0% | – | No gross ulceration | 148.6 ± 2.99 | – | – |
